Laboratory results taken from paper PMC4854315, “Discovery of a novel allosteric inhibitor-binding site in ERK5: comparison with the canonical kinase hinge ATP-binding site” (Acta Crystallographica. Section D, Structural Biology, 2016).

Legend:
Test in all cases: Z'-LYTE kinase panel
Type in all cases: biochemical
IRAK4 = molecular target: T1, IRAK4 (Homo sapiens, UniProt Q9NWZ3)
T1 construct: purchased ThermoFisher (SelectScreen, Z'-LYTE)
T1 sequence (Q9NWZ3 1-460): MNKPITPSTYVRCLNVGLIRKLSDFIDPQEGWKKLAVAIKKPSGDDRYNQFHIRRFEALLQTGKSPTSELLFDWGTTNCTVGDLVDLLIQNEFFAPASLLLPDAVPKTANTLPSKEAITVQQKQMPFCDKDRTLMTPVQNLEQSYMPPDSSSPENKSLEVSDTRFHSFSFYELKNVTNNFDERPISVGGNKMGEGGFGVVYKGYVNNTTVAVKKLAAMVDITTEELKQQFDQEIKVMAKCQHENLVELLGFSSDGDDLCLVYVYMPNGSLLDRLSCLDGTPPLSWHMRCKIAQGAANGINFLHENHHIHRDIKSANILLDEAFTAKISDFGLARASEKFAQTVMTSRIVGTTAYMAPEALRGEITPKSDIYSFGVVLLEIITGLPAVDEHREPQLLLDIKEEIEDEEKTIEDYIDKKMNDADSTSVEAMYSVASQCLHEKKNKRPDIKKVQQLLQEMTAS
Summary of the method: (§1)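 Compounds were profiled across a 225-kinase standard panel. Each kinase was run in the standard Z′-LYTE assay and percentage inhibition was recorded at a compound concentration of 10 µM.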

EPHB4 = molecular target: T2, EPHB4 (Homo sapiens, UniProt P54760)
T2 construct: purchased ThermoFisher (SelectScreen, Z'-LYTE)
T2 sequence (P54760 16-987): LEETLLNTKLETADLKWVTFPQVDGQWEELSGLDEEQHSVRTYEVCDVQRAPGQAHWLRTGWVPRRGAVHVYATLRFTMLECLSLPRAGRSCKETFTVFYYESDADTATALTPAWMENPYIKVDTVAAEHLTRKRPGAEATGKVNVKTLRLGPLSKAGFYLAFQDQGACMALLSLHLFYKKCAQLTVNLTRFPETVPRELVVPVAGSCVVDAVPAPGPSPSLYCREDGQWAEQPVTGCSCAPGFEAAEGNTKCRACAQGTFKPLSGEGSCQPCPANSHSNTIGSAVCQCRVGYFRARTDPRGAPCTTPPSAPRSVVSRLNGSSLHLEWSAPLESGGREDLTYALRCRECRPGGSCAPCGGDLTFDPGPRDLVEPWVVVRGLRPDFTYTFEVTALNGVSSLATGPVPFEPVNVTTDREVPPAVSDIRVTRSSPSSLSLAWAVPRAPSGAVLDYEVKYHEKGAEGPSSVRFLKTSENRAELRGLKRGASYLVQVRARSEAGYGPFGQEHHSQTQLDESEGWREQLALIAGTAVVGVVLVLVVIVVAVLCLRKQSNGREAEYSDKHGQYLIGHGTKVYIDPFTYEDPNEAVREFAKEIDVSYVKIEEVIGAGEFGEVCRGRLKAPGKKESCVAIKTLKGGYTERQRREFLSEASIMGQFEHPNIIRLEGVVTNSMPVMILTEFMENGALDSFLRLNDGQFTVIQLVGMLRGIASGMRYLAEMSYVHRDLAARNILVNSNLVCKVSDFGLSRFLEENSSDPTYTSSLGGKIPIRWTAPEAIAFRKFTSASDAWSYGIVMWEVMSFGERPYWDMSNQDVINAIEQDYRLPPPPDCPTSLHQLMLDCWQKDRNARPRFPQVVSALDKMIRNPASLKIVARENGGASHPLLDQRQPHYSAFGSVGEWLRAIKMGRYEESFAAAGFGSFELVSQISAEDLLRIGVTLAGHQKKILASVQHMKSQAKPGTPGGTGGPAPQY
Summary of the method: as §1

CDC42 BPA (MRCKA) = molecular target: T3, CDC42 BPA (MRCKA) (Homo sapiens, UniProt Q5VT25)
T3 construct: purchased ThermoFisher (SelectScreen, Z'-LYTE)
Summary of the method: as §1

ERBB2 (HER2) = molecular target: T4, ERBB2 (HER2) (Homo sapiens, UniProt P04626)
T4 construct: purchased ThermoFisher (SelectScreen, Z'-LYTE)
Summary of the method: as §1

PAK4 = molecular target: T5, PAK4 (Homo sapiens, UniProt O96013)
T5 construct: purchased ThermoFisher (SelectScreen, Z'-LYTE)
Summary of the method: as §1

MAPK11 (p38 beta) = molecular target: T6, MAPK11 (p38 beta) (Homo sapiens, UniProt Q15759)
T6 construct: purchased ThermoFisher (SelectScreen, Z'-LYTE)
Summary of the method: as §1

CDK5/p35 = molecular target: T7, CDK5/p35 (Homo sapiens, UniProt Q00535)
T7 construct: purchased ThermoFisher (SelectScreen, Z'-LYTE)
Summary of the method: as §1

HCK = molecular target: T8, HCK (Homo sapiens, UniProt P08631)
T8 construct: purchased ThermoFisher (SelectScreen, Z'-LYTE)
Summary of the method: as §1

AKT3 (PKB gamma) = molecular target: T9, AKT3 (PKB gamma) (Homo sapiens, UniProt Q9Y243)
T9 construct: purchased ThermoFisher (SelectScreen, Z'-LYTE)
Summary of the method: as §1

CDK1/cyclin B = molecular target: T10, CDK1/cyclin B (Homo sapiens, UniProt P06493)
T10 construct: purchased ThermoFisher (SelectScreen, Z'-LYTE)
Summary of the method: as §1

MAPKAPK5 (PRAK) = molecular target: T11, MAPKAPK5 (PRAK) (Homo sapiens, UniProt Q8IW41)
T11 construct: purchased ThermoFisher (SelectScreen, Z'-LYTE)
T11 sequence (Q8IW41 1-473): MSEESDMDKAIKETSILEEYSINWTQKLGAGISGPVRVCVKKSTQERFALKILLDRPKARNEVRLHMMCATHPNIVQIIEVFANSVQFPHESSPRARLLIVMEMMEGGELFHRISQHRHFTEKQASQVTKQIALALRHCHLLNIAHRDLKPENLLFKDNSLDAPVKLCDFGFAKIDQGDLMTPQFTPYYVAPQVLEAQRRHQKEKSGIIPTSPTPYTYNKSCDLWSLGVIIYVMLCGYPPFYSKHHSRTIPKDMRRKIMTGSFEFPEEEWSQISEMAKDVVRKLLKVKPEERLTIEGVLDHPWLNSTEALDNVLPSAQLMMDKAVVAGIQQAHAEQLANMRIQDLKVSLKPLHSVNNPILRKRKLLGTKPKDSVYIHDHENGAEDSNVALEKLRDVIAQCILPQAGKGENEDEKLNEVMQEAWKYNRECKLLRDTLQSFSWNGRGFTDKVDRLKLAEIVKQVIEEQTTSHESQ
Summary of the method: as §1

T10 sequence (P06493 whole entry): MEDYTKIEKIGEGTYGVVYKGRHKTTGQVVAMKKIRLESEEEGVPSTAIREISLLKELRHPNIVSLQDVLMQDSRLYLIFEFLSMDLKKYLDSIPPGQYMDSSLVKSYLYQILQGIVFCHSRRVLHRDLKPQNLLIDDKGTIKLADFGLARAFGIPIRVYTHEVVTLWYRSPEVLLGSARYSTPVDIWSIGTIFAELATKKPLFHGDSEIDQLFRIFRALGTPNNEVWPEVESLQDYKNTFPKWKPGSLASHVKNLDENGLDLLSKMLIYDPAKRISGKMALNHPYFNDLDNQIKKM
T10 sequence (P14635 whole entry partner): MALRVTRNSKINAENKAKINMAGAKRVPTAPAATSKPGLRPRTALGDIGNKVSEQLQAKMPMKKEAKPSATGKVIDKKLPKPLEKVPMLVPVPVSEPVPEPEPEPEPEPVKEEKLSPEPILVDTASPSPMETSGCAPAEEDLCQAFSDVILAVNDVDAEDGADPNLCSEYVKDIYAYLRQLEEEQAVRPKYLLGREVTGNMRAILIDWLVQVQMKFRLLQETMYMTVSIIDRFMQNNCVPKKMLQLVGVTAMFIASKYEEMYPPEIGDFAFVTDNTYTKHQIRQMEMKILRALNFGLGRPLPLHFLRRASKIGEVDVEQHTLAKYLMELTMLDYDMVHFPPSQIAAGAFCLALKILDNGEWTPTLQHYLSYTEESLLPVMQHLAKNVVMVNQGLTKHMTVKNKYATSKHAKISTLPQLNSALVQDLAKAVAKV
T9 sequence (Q9Y243 whole entry): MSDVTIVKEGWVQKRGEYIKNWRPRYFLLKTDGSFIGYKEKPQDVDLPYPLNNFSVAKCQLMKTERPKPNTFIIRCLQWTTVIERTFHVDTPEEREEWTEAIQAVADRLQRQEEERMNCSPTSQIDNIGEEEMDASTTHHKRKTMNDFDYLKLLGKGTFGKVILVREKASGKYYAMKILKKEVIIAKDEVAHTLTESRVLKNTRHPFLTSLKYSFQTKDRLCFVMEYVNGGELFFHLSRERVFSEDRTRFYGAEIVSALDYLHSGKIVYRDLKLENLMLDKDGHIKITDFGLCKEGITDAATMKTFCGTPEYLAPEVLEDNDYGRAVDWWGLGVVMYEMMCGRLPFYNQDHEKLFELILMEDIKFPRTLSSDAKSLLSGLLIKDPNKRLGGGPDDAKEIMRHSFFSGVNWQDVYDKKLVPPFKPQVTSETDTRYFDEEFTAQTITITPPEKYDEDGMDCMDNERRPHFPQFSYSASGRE
T6 sequence (Q15759 whole entry): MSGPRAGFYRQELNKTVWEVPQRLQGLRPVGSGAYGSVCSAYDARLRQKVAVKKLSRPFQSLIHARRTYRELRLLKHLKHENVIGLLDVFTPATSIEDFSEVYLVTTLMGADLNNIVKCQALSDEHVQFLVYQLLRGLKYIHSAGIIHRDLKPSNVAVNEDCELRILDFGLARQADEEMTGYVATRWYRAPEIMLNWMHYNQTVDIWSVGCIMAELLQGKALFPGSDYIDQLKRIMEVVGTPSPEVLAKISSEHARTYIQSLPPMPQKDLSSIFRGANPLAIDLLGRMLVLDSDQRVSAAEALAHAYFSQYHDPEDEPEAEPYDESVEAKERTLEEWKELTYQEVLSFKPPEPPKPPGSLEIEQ
T8 sequence (P08631 whole entry): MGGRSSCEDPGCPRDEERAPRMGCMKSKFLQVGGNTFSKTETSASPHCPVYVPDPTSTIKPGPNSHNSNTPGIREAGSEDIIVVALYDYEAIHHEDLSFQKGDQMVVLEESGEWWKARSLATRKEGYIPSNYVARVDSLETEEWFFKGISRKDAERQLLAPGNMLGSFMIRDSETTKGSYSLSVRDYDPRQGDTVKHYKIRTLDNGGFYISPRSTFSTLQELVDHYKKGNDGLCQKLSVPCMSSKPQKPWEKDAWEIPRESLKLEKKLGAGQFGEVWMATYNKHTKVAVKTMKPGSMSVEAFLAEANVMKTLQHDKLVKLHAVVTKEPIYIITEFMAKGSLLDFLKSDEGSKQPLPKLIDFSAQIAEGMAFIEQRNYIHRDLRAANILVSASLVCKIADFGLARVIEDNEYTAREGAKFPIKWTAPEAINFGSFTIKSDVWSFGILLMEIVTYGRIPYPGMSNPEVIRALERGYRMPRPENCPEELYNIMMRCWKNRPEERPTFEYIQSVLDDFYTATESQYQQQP
T5 sequence (O96013 whole entry): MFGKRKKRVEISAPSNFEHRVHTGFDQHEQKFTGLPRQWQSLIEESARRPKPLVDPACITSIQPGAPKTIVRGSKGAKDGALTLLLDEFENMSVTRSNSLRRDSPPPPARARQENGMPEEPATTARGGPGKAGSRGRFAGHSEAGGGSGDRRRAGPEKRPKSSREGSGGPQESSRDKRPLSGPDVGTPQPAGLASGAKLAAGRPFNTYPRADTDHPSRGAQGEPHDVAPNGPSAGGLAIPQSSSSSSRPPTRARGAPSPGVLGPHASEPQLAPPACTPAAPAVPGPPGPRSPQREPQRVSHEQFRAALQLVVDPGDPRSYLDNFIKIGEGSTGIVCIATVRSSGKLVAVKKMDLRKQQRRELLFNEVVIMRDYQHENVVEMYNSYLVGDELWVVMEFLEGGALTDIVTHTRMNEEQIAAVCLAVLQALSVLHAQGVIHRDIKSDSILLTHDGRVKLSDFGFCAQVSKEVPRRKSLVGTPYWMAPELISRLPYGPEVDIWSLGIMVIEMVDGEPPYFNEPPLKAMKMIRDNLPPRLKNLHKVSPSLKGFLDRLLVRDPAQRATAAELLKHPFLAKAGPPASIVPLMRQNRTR
T3 sequence (Q5VT25 whole entry): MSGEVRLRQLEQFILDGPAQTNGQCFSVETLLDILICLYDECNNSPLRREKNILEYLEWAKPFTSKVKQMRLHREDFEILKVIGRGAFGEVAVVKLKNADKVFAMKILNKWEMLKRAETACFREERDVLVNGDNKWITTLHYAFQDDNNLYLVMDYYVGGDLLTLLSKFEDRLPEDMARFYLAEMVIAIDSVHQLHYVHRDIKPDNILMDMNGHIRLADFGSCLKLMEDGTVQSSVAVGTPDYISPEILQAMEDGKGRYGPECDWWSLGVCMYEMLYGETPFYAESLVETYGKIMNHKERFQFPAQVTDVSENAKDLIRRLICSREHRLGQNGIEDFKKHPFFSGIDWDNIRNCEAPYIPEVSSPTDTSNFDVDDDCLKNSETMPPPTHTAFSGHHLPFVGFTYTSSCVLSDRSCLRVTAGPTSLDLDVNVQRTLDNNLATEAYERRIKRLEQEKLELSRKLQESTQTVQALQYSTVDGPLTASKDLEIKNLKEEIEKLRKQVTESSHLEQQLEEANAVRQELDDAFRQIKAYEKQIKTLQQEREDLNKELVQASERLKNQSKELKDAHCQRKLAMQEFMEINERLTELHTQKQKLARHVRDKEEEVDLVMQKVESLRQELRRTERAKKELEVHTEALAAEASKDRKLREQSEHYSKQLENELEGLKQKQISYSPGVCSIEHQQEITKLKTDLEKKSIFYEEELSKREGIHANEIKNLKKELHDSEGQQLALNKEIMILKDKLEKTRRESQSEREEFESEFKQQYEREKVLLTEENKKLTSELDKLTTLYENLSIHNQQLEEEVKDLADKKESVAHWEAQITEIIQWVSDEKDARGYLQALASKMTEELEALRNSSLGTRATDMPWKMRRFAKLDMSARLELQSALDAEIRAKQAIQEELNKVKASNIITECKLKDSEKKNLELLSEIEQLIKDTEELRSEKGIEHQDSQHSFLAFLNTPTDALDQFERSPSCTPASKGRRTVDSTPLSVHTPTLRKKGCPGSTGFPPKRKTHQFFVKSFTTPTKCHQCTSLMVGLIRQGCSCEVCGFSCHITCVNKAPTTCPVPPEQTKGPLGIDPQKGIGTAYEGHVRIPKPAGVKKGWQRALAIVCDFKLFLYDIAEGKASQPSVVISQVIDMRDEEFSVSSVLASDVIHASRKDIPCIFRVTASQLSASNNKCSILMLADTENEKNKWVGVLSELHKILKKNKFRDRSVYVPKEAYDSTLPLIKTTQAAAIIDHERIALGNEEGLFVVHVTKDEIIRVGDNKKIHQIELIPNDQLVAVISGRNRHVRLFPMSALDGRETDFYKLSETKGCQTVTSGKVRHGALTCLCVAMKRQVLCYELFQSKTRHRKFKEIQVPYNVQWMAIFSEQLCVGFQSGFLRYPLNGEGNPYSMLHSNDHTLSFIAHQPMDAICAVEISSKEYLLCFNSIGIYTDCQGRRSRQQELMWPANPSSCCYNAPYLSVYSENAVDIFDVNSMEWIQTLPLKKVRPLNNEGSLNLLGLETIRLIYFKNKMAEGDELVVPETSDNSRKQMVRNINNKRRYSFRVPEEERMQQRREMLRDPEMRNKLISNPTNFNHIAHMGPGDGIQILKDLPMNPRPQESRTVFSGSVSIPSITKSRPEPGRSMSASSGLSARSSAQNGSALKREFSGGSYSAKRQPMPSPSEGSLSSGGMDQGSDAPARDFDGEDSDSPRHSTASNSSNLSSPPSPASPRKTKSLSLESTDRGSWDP
T7 sequence (Q00535 whole entry): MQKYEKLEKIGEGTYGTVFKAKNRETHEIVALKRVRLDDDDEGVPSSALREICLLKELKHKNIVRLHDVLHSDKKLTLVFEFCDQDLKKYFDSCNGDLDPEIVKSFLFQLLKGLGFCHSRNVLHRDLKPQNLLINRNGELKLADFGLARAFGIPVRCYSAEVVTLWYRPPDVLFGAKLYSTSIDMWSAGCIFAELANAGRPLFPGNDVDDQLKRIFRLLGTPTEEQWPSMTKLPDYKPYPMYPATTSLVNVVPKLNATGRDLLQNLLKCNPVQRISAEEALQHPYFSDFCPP
T7 sequence (Q15078 whole entry partner): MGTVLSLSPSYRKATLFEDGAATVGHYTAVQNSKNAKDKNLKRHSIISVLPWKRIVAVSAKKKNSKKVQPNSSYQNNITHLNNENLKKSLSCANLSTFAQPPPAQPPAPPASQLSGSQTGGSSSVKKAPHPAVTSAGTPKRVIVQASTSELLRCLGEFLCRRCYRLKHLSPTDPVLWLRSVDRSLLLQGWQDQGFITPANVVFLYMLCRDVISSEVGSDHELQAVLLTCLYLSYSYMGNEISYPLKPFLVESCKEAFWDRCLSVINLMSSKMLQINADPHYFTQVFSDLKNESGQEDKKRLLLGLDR

Molecule	inhibition at 10 µM (IRAK4) [%]	inhibition at 10 µM (EPHB4) [%]	inhibition at 10 µM (CDC42 BPA (MRCKA)) [%]	inhibition at 10 µM (ERBB2 (HER2)) [%]	inhibition at 10 µM (PAK4) [%]	inhibition at 10 µM (MAPK11 (p38 beta)) [%]	inhibition at 10 µM (CDK5/p35) [%]	inhibition at 10 µM (HCK) [%]	inhibition at 10 µM (AKT3 (PKB gamma)) [%]	inhibition at 10 µM (CDK1/cyclin B) [%]	inhibition at 10 µM (MAPKAPK5 (PRAK)) [%]	also measured
Cc1cc(Nc2nc(N)nn2C(=O)NC(C)C)ccc1Cl [Compound 5]	-2.32	17	5	-29	41	4.21	71	16	2	56	-3.49	
Cc1ncc(-c2nc(Nc3ccc(C(=O)NCCN4CCCCC4)cc3)ncc2F)n1C(C)C [Compound 3]	71	83	17	-1.66	81	22	106	48	43	96	45	
XMD8-92 [Compound 2, reference compound]												IRAK4 % Inhibition (IRAK4; 10 µM compound, ATP Km app): -9%; EPHB4 % Inhibition (EPHB4; 10 µM compound, ATP Km app): 29%; CDC42 BPA (MRCKA) % Inhibition (CDC42 BPA (MRCKA); 10 µM compound, ATP Km app): -2.25%; ERBB2 (HER2) % Inhibition (ERBB2 (HER2); 10 µM compound, ATP Km app): -17%; PAK4 % Inhibition (PAK4; 10 µM compound, ATP Km app): 26%; MAPK11 (p38 beta) % Inhibition (MAPK11 (p38 beta); 10 µM compound, ATP Km app): 10%; CDK5/p35 % Inhibition (CDK5/p35; 10 µM compound, ATP Km app): 77%; HCK % Inhibition (HCK; 10 µM compound, ATP Km app): 14%; AKT3 (PKB gamma) % Inhibition (AKT3 (PKB gamma); 10 µM compound, ATP Km app): 72%; CDK1/cyclin B % Inhibition (CDK1/cyclin B; 10 µM compound, ATP Km app): 8.43%; MAPKAPK5 (PRAK) % Inhibition (MAPKAPK5 (PRAK); 10 µM compound, ATP Km app): 11%
